From the supplement of paper PMC10307832

How the values were obtained:
Test in all cases: relative viability (nuclei count vs DMSO), 5 days (fraction); higher = more cells survive
[1] = compound: CC(C)N(CCCNC(=O)Nc1ccc(C(C)(C)C)cc1)C[C@H]1O[C@@H](n2ccc3c(N)ncnc32)[C@H](O)[C@@H]1O
Outline: (§1)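 Five library-drug doses, separated by factors of √10, were pinned into 1536-well plates holding lung cancer cell lines after an overnight stay at 37 °C. Cells were fixed, permeabilised and Hoechst-stained in one step after 5 days without medium change, then imaged at 4×. Viability compares treated-well with vehicle-well nuclei, counted in MetaXpress, as a median across plates. Passing plates had control CV below 25% and at least one doubling.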

Shikonin = compound: CC(C)=CC[C@@H](O)C1=CC(=O)c2c(O)ccc(O)c2C1=O [Shikonin]
Outline: as §1

[2] = compound: CC(C)N(CCCNC(=O)Nc1ccc(C(C)(C)C)cc1)C[C@H]1O[C@@H](n2ccc3c(N)ncnc32)[C@H](O)[C@@H]1O + Nc1nc2[nH]cc(CCc3ccc(C(=O)N[C@@H](CCC(=O)O)C(=O)O)cc3)c2c(=O)[nH]1 [Pemetrexed] (partner 0.2 µM)
Outline: (§2)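 Lung cancer cell lines in 1536-well plates were dosed by pin tool the day after seeding, either with one drug alone or with a fixed anchor-drug dose plus five library-drug doses (not always all listed) in √10 steps. After 5 days, cells were fixed and their nuclei stained in one step (final 0.05% Triton X-100, 1% formaldehyde, 1 ug/ml Hoechst), then counted on 4× images. Relative viability is the nuclei count in treated wells divided by that in vehicle wells. Values are medians of duplicate plates.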

Shikonin + OSI-027 = compound: CC(C)=CC[C@@H](O)C1=CC(=O)c2c(O)ccc(O)c2C1=O [Shikonin] + COc1cccc2cc(-c3nc([C@H]4CC[C@H](C(=O)O)CC4)n4ncnc(N)c34)[nH]c12 [OSI-027] (partner 0.5 µM)
Outline: as §2

Row | Cell Line | relative viability ([1]; 0.08 µM) | relative viability ([1]; 0.253 µM) | relative viability ([1]; 0.8 µM) | relative viability ([1]; 2.53 µM) | relative viability ([1]; 8 µM) | relative viability (Shikonin; 0.01 µM) | relative viability (Shikonin; 0.1 µM) | relative viability (Shikonin; 0.3162 µM) | relative viability (Shikonin; 1 µM) | relative viability ([2]; first compound 0.08 µM) | relative viability ([2]; first compound 0.253 µM) | relative viability ([2]; first compound 0.8 µM) | relative viability ([2]; first compound 2.53 µM) | relative viability ([2]; first compound 8 µM) | relative viability (Shikonin + OSI-027; first compound 0.01 µM) | relative viability (Shikonin + OSI-027; first compound 0.1 µM) | relative viability (Shikonin + OSI-027; first compound 0.3162 µM) | relative viability (Shikonin + OSI-027; first compound 1 µM)
1 | HCC-366 | 0.965 | 0.988 | 0.927 | 0.984 | 0.892 | 0.975 | 1.15 | 1.04 | 1.03 | 0.14 | 0.266 | 0.129 | 0.18 | 0.166 | 1.07 | 1.27 | 1.14 | 0.859
2 | HCC-827 | 1.03 | 1.06 | 0.584 | 1.01 | 0.961 | 1.04 | 1.04 | 1.04 | 1.06 | 0.257 | 0.284 | 0.279 | 0.267 | 0.269 | 0.821 | 0.86 | 0.9 | 0.761
3 | HOP-62 | 1.04 | 1.06 | 0.856 | 0.939 | 0.879 | 1.15 | 1.11 | 1.23 | 1.02 | 0.323 | 0.433 | 0.39 | 0.31 | 0.356 | 0.967 | 1.06 | 1.03 | 0.826
4 | IA-LM | 1.02 | 0.879 | 1.02 | 0.963 | 0.84 | 1.13 | 0.875 | 1.05 | 0.859 |  |  |  |  |  |  |  |  | 
5 | LC-2-ad | 0.978 | 1.03 | 0.731 | 0.944 | 0.882 | 0.965 | 1.05 | 1.01 | 1.01 | 0.282 | 0.271 | 0.263 | 0.282 | 0.276 | 0.815 | 0.913 | 0.816 | 0.876
6 | LCLC-97TM1 | 1.05 | 1 | 1.07 | 0.903 | 0.989 | 0.991 | 1.02 | 1.08 | 0.968 | 0.179 | 0.175 | 0.18 | 0.163 | 0.183 | 0.504 | 0.591 | 0.675 | 0.579
7 | LCLC-103H | 0.946 | 0.966 | 0.857 | 0.839 | 1.01 | 0.946 | 1.2 | 1.05 | 1.08 | 0.417 | 0.454 | 0.452 | 0.413 | 0.51 | 0.541 | 0.54 | 0.514 | 0.534
8 | LK-2 | 0.886 | 0.792 | 1.04 | 0.966 | 0.974 | 1.1 | 0.955 | 0.998 | 1.03 |  | 0.252 | 0.336 | 0.293 | 0.279 | 0.168 | 0.241 | 0.203 | 0.227
9 | LOU-NH91 | 0.981 | 0.908 |  | 0.979 | 1 | 0.984 | 1.04 | 1.04 | 1.02 | 0.359 | 0.373 |  | 0.439 | 0.427 | 0.718 | 0.813 | 0.786 | 0.726
10 | LU99A | 0.876 | 0.842 | 1.04 | 0.979 | 1.02 | 1.02 | 1 | 0.996 | 0.923 | 0.178 | 0.206 | 0.176 | 0.204 | 0.167 | 0.271 | 0.344 | 0.265 | 0.305
11 | LXF-289 | 0.97 | 1.03 | 0.923 | 1.03 | 0.95 | 1.08 | 0.999 | 1.08 | 0.992 | 0.876 | 1 | 0.96 | 1.02 | 0.833 | 0.817 | 0.84 | 0.825 | 0.892
12 | NCI-H23 | 0.912 | 0.707 | 1.07 | 0.931 | 0.9 | 1.02 | 1.11 | 1 | 0.981 | 0.732 |  | 0.693 | 0.709 | 0.627 | 0.623 | 0.661 | 0.62 | 0.521
13 | NCI-H322M | 0.929 | 0.893 | 0.93 | 0.918 | 0.975 | 0.924 | 0.917 | 0.921 | 1.06 | 0.634 | 0.609 | 0.617 | 0.593 | 0.631 | 0.548 | 0.562 | 0.53 | 0.509
14 | NCI-H358 | 0.856 | 0.873 | 1.04 | 0.924 | 0.889 | 0.978 | 0.862 | 0.967 | 0.979 | 0.183 | 0.159 | 0.162 | 0.168 | 0.166 | 0.681 | 0.699 | 0.712 | 0.662
15 | NCI-H441 | 1.01 | 1.06 |  | 1.1 | 0.981 | 1.24 | 0.942 | 1.18 | 0.975 | 0.271 | 0.242 |  | 0.263 | 0.253 | 0.539 | 0.831 | 0.619 | 0.624
16 | NCI-H460 | 0.982 | 0.953 | 0.935 | 0.996 | 1.02 | 1.06 | 1.07 | 1.07 | 1.05 | 0.0586 | 0.06 | 0.0609 | 0.0624 | 0.0643 | 0.834 | 0.755 | 1.11 | 0.879
17 | NCI-H727 | 0.867 | 0.815 | 0.868 | 0.931 | 0.943 | 0.916 | 1.03 | 0.933 | 1.02 |  |  |  |  |  | 0.683 | 0.668 | 0.57 | 0.525
18 | NCI-H1299 | 0.979 | 1.01 | 0.955 | 0.999 | 0.963 | 1.05 | 1.06 | 1.01 | 0.973 |  |  |  |  |  |  |  |  | 
19 | NCI-H1623 | 0.947 | 0.968 | 0.934 | 0.911 | 1.01 | 0.934 | 0.817 | 1.08 | 1.07 |  |  |  |  |  | 0.397 | 0.428 | 0.414 | 0.393
20 | NCI-H1703 | 0.913 | 1.04 | 0.803 | 1.03 | 0.782 | 0.994 | 1.21 | 0.864 | 0.646 |  |  |  |  |  |  |  |  | 
